System: Lactobacillus reuteri F 275 (DSMZ 20016)
Test: microbe, parasite or virus in culture
Details: Limosilactobacillus reuteri

## O=CO [formic, formic acid]
DSMZ20016, NCI-H125, 4 h
  inhibition at […]: 23.4%
DSMZ20016, NCI-H125, 5 h
  inhibition at […]: 38.2%
DSMZ20016, NCI-H125, 6 h
  inhibition at […]: 39.8%
DSMZ20016, NCI-H125, 7 h
  inhibition at […]: 39.7%
DSMZ20016, NCI-H125, 10 h
  inhibition at […]: 39.5%

From patent US20250017213A1, “COMPOSITION FOR MODULATING MICROBIAL GROWTH” (DSM AUSTRIA GMBH, priority 2021, published 2025)
